These results are taken from patent US20100137345A1, “PROPHYLACTIC AND THERAPEUTIC USE OF SIRTUIN INHIBITORS IN TNF-ALPHA MEDIATED PATHOLOGIES” (Universite Libre de Bruxelles, priority 2007, published 2010).

“Also recorded” adds a separate entry of the source.

Data set [1] deals with murine dendritic cells. The experiment in a line: TNF-alpha secretion by CpG-stimulated murine dendritic cells (ELISA). Type of data set: cell-based. To be noted: stimulated overnight with graded doses of CpG, FIG. 1A. The method, then:
(§1) Murine dendritic cells (FIG. 1A) or the murine macrophage-like cell line RAW264.7 cells (FIG. 1B) were cultured in the presence of sirtuin inhibitors as indicated or an equivalent amount of solvent (DMSO) and stimulated overnight with graded doses of CpG (FIG. 1A) or for 2 h with 100 ng/ml of lipopolysaccharide (LPS) from gram-negative bacteria. Cell supernatants were tested for tumor necrosis factor (TNF-alpha) content by ELISA.
On the technique in general: An ELISA detects its analyte on a solid surface through an enzyme-linked reagent.

Data set [2] has as its system murine macrophage-like cell line RAW264.7. The experiment in a line: TNF-alpha secretion by LPS-stimulated RAW264.7 cells (ELISA). The settings on record: stimulated 2 h with 100 ng/ml LPS, FIG. 1B. Type of data set: cell-based. The method, then:
as §1

Data set [3] concerns murine dendritic cells. The experiment in a line: RANTES secretion by CpG-stimulated murine dendritic cells (ELISA). Type of data set: cell-based. The settings on record: inferred from RANTES secretion, FIG. 2. The method, then:
Murine dendritic cells were cultured in the presence of sirtuin inhibitors as indicated and stimulated overnight with graded doses of CpG. Cell supernatants were tested for RANTES content by ELISA.

The test system of the next data set is RAW264.7. The experiment in a line: TNF-alpha mRNA accumulation in LPS-stimulated RAW264.7 (quantitative RT-PCR). To be noted: RAW264.7, stimulated 2 h by LPS, FIG. 3. The format is cell-based, murine. The procedure:
RAW264.7 were incubated in the presence of sirtuin inhibitors or equivalent doses of solvent (DMSO) as indicated and stimulated for 2 h by LPS. Expression of mRNA encoding for TNF-α was monitored using quantititative RT-PCR using standard procedures and the following forward and reverse primers (fwd: […]; rev: gctacgacgtgggctacag). […] Collectively, these observations indicate that sirtuin inhibitors may affect TNF-alpha secretion by interfering with at a post-transcriptional step.

For data set [4] the following is noted: Yang et al. 2007; cited from earlier work.
In the next data set the target is SIRT1 (Homo sapiens, UniProt Q96EB6). To be noted: Howitz et al. 2003; cited from earlier work.
Sequence of SIRT1 (Q96EB6 whole entry): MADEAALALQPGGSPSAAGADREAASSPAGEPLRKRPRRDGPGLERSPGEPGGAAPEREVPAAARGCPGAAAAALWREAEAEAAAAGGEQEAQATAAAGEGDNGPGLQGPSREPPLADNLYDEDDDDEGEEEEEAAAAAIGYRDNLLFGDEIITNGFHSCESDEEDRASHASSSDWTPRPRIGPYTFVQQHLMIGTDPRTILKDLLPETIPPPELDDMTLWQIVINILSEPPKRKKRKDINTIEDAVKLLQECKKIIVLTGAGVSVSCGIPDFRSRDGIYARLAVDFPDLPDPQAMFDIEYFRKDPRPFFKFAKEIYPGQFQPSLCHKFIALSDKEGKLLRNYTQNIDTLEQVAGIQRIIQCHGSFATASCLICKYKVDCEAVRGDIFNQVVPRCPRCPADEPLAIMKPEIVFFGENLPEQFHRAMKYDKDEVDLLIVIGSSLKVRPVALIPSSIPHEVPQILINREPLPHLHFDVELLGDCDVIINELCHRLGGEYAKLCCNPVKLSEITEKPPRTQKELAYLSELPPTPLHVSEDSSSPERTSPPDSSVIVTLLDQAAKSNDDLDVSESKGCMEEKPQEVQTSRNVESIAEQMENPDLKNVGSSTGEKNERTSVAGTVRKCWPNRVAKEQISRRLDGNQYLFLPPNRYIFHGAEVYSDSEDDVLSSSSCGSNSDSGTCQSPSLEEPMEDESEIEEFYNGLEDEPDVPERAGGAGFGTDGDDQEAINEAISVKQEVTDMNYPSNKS

Consider `CC(NC(=O)c1ccccc1/N=C/c1c(O)ccc2ccccc12)c1ccccc1` (stereo not shown) [sirtinol, 2-[(2-Hydroxynaphthalen-1-ylmethylene)amino]-N-(1-phenethyl)benzamide], for which the “TNF-alpha secretion (supernatant TNF-alpha content by ELISA)” value in the data set with murine dendritic cells [1] is on record as “downregulation of TNF-alpha secretion”. Moreover, the “TNF-alpha secretion / cytokine production (supernatant TNF-alpha content by ELISA)” value in data set [2] is recorded as “inhibit TNF-α protein synthesis; also recorded: downregulation of TNF-alpha secretion; also recorded: may downregulate TNF-alpha cytokine production”. Also, in the data set with murine dendritic cells [3], the “general inhibition of protein synthesis or induction of cell death” value was “do not generally inhibit protein synthesis nor induce cell death”. The “intracellular accumulation of TNF-alpha mRNA” value with RAW264.7 was “do not significantly affect TNF-alpha mRNA accumulation; also recorded: without significantly affecting the intracellular accumulation of TNF-alpha mRNA”. Further, the “release of inflammatory cytokines induced by cigarette smoke extracts” value in data set [4] is reported as “could increase the release of inflammatory cytokines”.

With `Oc1ccc2ccccc2c1Cc1c(O)nc(S)nc1-c1ccccc1` [cambinol, 5-((2-hydroxy-1-naphthyl)methyl)-2-mercapto-6-phenyl-4-pyrimidinol], the “TNF-alpha secretion (supernatant TNF-alpha content by ELISA)” value with murine dendritic cells [1] is recorded as “downregulation of TNF-alpha secretion”. Moreover, in data set [2], the “TNF-alpha secretion / cytokine production (supernatant TNF-alpha content by ELISA)” value is “inhibit TNF-α protein synthesis; also recorded: downregulation of TNF-alpha secretion; also recorded: may downregulate TNF-alpha cytokine production”. Besides, the “general inhibition of protein synthesis or induction of cell death” value with murine dendritic cells [3] is “do not generally inhibit protein synthesis nor induce cell death”. In addition, the “intracellular accumulation of TNF-alpha mRNA” value in the data set on RAW264.7 was “do not significantly affect TNF-alpha mRNA accumulation; also recorded: without significantly affecting the intracellular accumulation of TNF-alpha mRNA”.

In the case of `Cc1ccc(C(=O)Nc2ccc(S(=O)(=O)O)c3cc(S(=O)(=O)O)cc(S(=O)(=O)O)c23)cc1NC(=O)c1cccc(NC(=O)Nc2cccc(C(=O)Nc3cc(C(=O)Nc4ccc(S(=O)(=O)O)c5cc(S(=O)(=O)O)cc(S(=O)(=O)O)c45)ccc3C)c2)c1` [suramin], the “inhibition of SIRT1 enzymatic activity” value at SIRT1 is on record as “found to inhibit SIRT1 enzymatic activity”.
